Each block holds one compound with its values, some of them ahead of it.
Experiments:
[1] = Rancimat oxidative stability test of peanut oil; conditions: Rancimat 100° C., 20 cc/min air, control 10.5 ± 0.7
Experimental: The procedures described in Examples 1, 2 and 3 were used to prepare cocoa extracts which were manipulated further to produce two fractions from gel permeation chromatography. These two fractions are actually combined fractions A through C, and D and E (See FIG. 1) whose antioxidant properties were compared against the synthetic antioxidants BHA and BHT.
Peanut Oil was pressed from unroasted peanuts after the skins were removed. 50 μL of methanol solubilized antioxidant was added to each sample to aid in dispersion of the antioxidant. A control sample was prepared with 50 μL of methanol containing no antioxidant.
The samples were evaluated in duplicate, for oxidative stability using the Rancimat stability test at 100° C. and 20 cc/min of air. Experimental parameters were chosen to match those used with the Active oxygen Method (AOM) or Swift Stability Test (Van oosten et al., 1981). Results are reported in Table 8 as hours required to reach a peroxide level of 100 meq.

[2] = system: Helicobacter pylori; assay: Disk diffusion bioassay, H. pylori; type: cell-based; conditions: control disk containing 80 ug metronidazole
Experimental: (§1) A study was conducted to evaluate the antimicrobial activity of procyanidin oligomers against Helicobacter pylori and Staphylococcus aureus. Pentamer enriched material was prepared as described in Example 13, Method A and analyzed as described in Example 14, Method C, where 89% was pentamer, and 11% was higher oligomers (n is 6 to 12). Purified pentamer (96.3%) was prepared as described in Example 14, Method D.
(§2) Helicobacter pylori and Staphylococcus aureus were obtained from the American Type Culture Collection (ATCC). For H. pylori, the vial was rehydrated with 0.5 mL Trypticase Soy broth and the suspension transferred to a slant of fresh TSA containing 5% defibrinated sheep blood. The slant was incubated at 37° C. for 3 to 5 days under microaerophilic conditions in anaerobic jars (5 to 10% carbon dioxide; CampyPakPlus, BBL). When good growth was established in the pool of broth at the bottom of the slant, the broth was used to inoculate additional slants of TSA with sheep blood. Because viability decreased with continued subculturing, the broth harvested from the slants was pooled and stored at −80° C. Cultures for assay were used directly from the frozen vials. […]
(§3) A cell suspension of each culture was prepared (H. pylori, 10^8 to 10^9 cfu/mL; S. aureus 10^6 to 10^7 cfu/mL) and 0.5 mL spread onto TSA plates with 5% sheep blood. […] Zones of inhibition were measured following outgrowth.

[3] = system: Staphylococcus aureus; assay: Disk diffusion bioassay, S. aureus; type: cell-based; conditions: control disk containing 30 ug vancomycin
Experimental: as §1, §2, §3

Oxidative Stability of Peanut Oil, hours required to reach a peroxide level of 100 meq, average ([1]; 20 ppm): 16.5 ± 2.1 h
Oxidative Stability of Peanut Oil, hours required to reach a peroxide level of 100 meq, average ([1]; 100 ppm): 12.5 ± 2.1 h
Structure (SMILES): Cc1cc(C(C)(C)C)c(O)c(C(C)(C)C)c1 [BHT, Butylated Hydroxytoluene]

Structure (SMILES): Cc1ncc([N+](=O)[O-])n1CCO [Metronidazole, metronidazole]
H. pylori Inhibition [2]: 11 mm

Structure (SMILES): CN[C@H](CC(C)C)C(=O)N[C@H]1C(=O)N[C@@H](CC(N)=O)C(=O)N[C@H]2C(=O)N[C@H]3C(=O)N[C@H](C(=O)N[C@H](C(=O)O)c4cc(O)cc(O)c4-c4cc3ccc4O)[C@H](O)c3ccc(c(Cl)c3)Oc3cc2cc(c3O[C@@H]2O[C@H](CO)[C@@H](O)[C@H](O)[C@H]2O[C@H]2C[C@](C)(N)[C@H](O)[C@H](C)O2)Oc2ccc(cc2Cl)[C@H]1O [Vancomycin, vancomycin]
S. aureus Inhibition [3]: 15 mm

Source: patent US8377424B2, “Treatment of periodontal disease” (Mars, Incorporated, priority 1996, dated 2013)
